# Measurements: patent US20200288710A1, “SUBSTITUTED SULPHONAMIDES FOR CONTROLLING ANIMAL PESTS” (BAYER CROPSCIENCE AKTIENGESELLSCHAFT, priority 2016, published 2020)
# What was measured:
# Assay type in all cases: in vivo
# [1] = system: Phaedon cochleariae; assay: Phaedon cochleariae spray test; conditions: foliar, 168 h, Chinese cabbage leaf discs, larvae, after 7 days, read-out: efficacy
# Procedure: Phaedon cochleariae—Spray Test
# To produce a suitable preparation of active compound, 1 part by weight of active compound is dissolved using the specified parts by weight of solvent and made up with water containing an emulsifier concentration of 1000 ppm until the desired concentration is attained. To produce further test concentrations, the formulation is diluted with emulsifier-containing water.
# After 7 days, the efficacy in % is determined. 100% means that all the beetle larvae have been killed; 0% means that no beetle larvae have been killed.
# [2] = system: Meloidogyne incognita; assay: Meloidogyne incognita test; conditions: 336 h, lettuce, after 14 days, read-out: nematicidal efficacy (formation of galls)
# Method in brief: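 Gall formation on lettuce roots scored after 14 days: 0% means gall count equals untreated control, 100% means none. Sand vessels held the compound (acetone concentrate diluted in water), southern root-knot nematode egg/larvae suspension and lettuce seeds.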
# [3] = system: Myzus persicae; assay: Myzus persicae spray test (Chinese cabbage leaf discs); conditions: foliar, 120 h, 500 g/ha, after 5-6 days, read-out: efficacy
# Method in brief: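 Formulated compound in acetone/dimethylformamide, diluted in water with 1000 ppm emulsifier, was sprayed onto Brassica pekinensis leaf discs carrying mixed-stage Myzus persicae. Percent mortality was read 5-6 days later (0% = no aphids killed, 100% = all killed).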
# [4] = system: Myzus persicae; assay: Myzus persicae oral test; conditions: 120 h, 20 ppm, oral uptake, after 5 days, read-out: efficacy
# Method in brief: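 Aphids of mixed ages imbibe, through parafilm, compound solution (acetone stock, water-diluted) combined with sugar-supplemented IPL41 medium to 200 μl. Efficacy read at day 5 as percent killed, 0% meaning no deaths.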
Structure (SMILES),pest or weed control at 500 g/ha [1] [%],pest or weed control at 20 ppm [2] [%],pest or weed control at 500 g/ha [3] [%],pest or weed control at 20 ppm [4] [%]
Cn1cc(C(=O)NS(=O)(=O)c2ccccc2Cl)nc1-c1c(F)cc(F)cc1F [Example 2],100,90,90,
Cn1cc(C(=O)NS(=O)(=O)c2cccc(Cl)c2)nc1-c1c(Cl)cccc1Cl [Example 42],100,100,100,
Cn1cc(C(=O)NS(=O)(=O)c2ccccc2C(F)(F)F)nc1-c1ccccc1Cl [Example 58],100,90,90,100
Cn1cc(C(=O)NS(=O)(=O)c2ccccc2Cl)nc1-c1c(Cl)cccc1Cl [Example 100],100,90,100,100
Cn1cc(C(=O)NS(=O)(=O)c2ccccc2Cl)nc1-c1c(F)cccc1Cl [Example 106],100,100,90,100
Cc1ccc(S(=O)(=O)NC(=O)c2cn(C)c(-c3ccccc3Cl)n2)cc1 [Example 164],100,90,100,
Cn1cc(C(=O)NS(=O)(=O)c2cc(Cl)ccc2Cl)nc1-c1c(F)cccc1F [Example 171],83,100,90,100
Cc1cccc(S(=O)(=O)NC(=O)c2cn(C)c(-c3c(F)cccc3F)n2)c1 [Example 176],83,100,90,90
Cn1cc(C(=O)NS(=O)(=O)c2cc(Cl)cc(Cl)c2)nc1-c1c(F)cccc1F [Example 188],100,100,90,100
Cc1ccccc1S(=O)(=O)NC(=O)c1nc(-c2ccccc2Cl)n(C)c1Cl [Example 205],100,100,,100
Cc1ccccc1S(=O)(=O)NC(=O)c1cn(C)c(-c2cccc3ccccc23)n1 [Example 216],100,90,,100
Cn1c(-c2ccccc2Cl)nc(C(=O)NS(=O)(=O)c2ccccc2Cl)c1Cl [Example 221],100,100,,100
COc1ccc(Cl)c(S(=O)(=O)NC(=O)c2nc(-c3ccccc3Cl)n(C)c2Br)c1 [Example 222],100,100,,
Cn1cc(C(=O)NS(=O)(=O)c2c(Cl)cccc2Cl)nc1-c1ccccc1Cl [Example 227],83,100,100,
Cc1cc(C(=O)NS(=O)(=O)c2c(Cl)cccc2Cl)nn1-c1ccccc1Cl [Example 269],83,100,100,100
CCc1ccc(Cl)cc1S(=O)(=O)NC(=O)c1cn(C)c(-c2c(F)cccc2F)n1 [Example 279],100,100,90,100
CCc1ccc(Cl)cc1S(=O)(=O)NC(=O)c1cn(C)c(-c2ccccc2Cl)n1 [Example 280],100,90,90,100
Cc1cc(Br)ccc1S(=O)(=O)NC(=O)c1cn(C)c(-c2ccccc2Cl)n1 [Example 282],100,100,90,100

Structure (SMILES),pest or weed control at 500 g/ha [1] [%],pest or weed control at 20 ppm [2] [%],pest or weed control at 500 g/ha [3] [%],pest or weed control at 20 ppm [4] [%]
COc1cc(S(=O)(=O)NC(=O)c2cn(C)c(-c3ccccc3Cl)n2)c(C)cc1Br [Example 286],100,100,,100
Cc1cc(F)c(F)cc1S(=O)(=O)NC(=O)c1cn(C)c(-c2c(F)cccc2F)n1 [Example 289],100,90,90,100
Cc1cc(C(=O)NS(=O)(=O)c2cc(Cl)ccc2Br)nn1-c1c(F)cccc1F [Example 294],100,100,100,100
COc1ccc(Cl)c(S(=O)(=O)NC(=O)c2nc(-c3c(F)cccc3F)c(C)n2C)c1 [Example 307],100,100,,
Cc1c(-c2c(F)cccc2F)nc(C(=O)NS(=O)(=O)c2ccccc2Cl)n1C [Example 308],100,90,,
Cc1c(-c2c(F)cccc2F)nc(C(=O)NS(=O)(=O)c2ccccc2Br)n1C [Example 309],100,100,,
Cc1ccccc1S(=O)(=O)NC(=O)c1nc(-c2c(F)cccc2F)c(C)n1C [Example 311],83,100,,100
Cn1cc(C(=O)NS(=O)(=O)c2cccc(Cl)c2I)nc1-c1c(F)cccc1F [Example 313],100,90,90,100
COc1ccc(Cl)c(S(=O)(=O)NC(=O)c2nc(-c3c(F)cccc3F)n(C)c2C)c1 [Example 334],100,90,,
CCc1ccc(CC)c(S(=O)(=O)NC(=O)c2cn(C)c(-c3c(F)cccc3F)n2)c1 [Example 340],100,90,,
Cc1cccc(C(C)C)c1S(=O)(=O)NC(=O)c1cn(C)c(-c2c(F)cccc2F)n1 [Example 361],100,90,,
Cc1cccc(OC(F)(F)F)c1S(=O)(=O)NC(=O)c1cn(C)c(-c2c(F)cccc2F)n1 [Example 405],100,90,,100
Cn1cc(C(=O)NS(=O)(=O)c2ccccc2Cl)nc1-c1cccc2ccccc12 [Example 479],100,90,,
Cn1c(-c2c(F)cccc2F)nc(C(=O)NS(=O)(=O)c2ccccc2Cl)c1Cl [Example 550],100,90,90,
Cc1ccccc1S(=O)(=O)NC(=O)c1nc(-c2c(F)cccc2F)n(C)c1Cl [Example 552],83,90,90,
COc1ccc(Cl)c(S(=O)(=O)NC(=O)c2nc(-c3ccccc3Cl)n(C)c2Cl)c1 [Example 577],100,100,,
COc1cc(S(=O)(=O)NC(=O)c2cn(C)c(-c3ncccc3Cl)n2)c(C)cc1Br [Example 611],100,,90,100
